According to patent publication US20240228474A1, “ANTIBACTERIAL COMPOUND” (DISCUVA LIMITED, priority 2021, published 2024):
In brackets after ≈: the same amount, converted by molar mass.

How the values were obtained:
[1] = system: Escherichia coli (100 isolates); assay: MIC90 by broth microdilution (EUCAST), 100 isolates; format: cell-based
Method: (§1) Minimum Inhibitory Concentration (MIC90) versus 100 isolates of Escherichia coli and Klebsiella pneumonia were determined. The Minimum Inhibitory Concentration at which 90% of the isolates (strains) are inhibited (MIC90) were measured by broth microdilution in line with EUCAST susceptibility testing standards (www.eucast.org). Bacterial inocula were prepared at ca 1×10^6 CFU/mL by diluting 100-fold a 0.5 McFarland suspension. Antibacterial panels containing 50 μl of antibacterial solutions at 2× the final concentrations were diluted 2-fold with 50 μl of inoculum to give a final inoculum of ca 5×10^5 CFU/ml and desired test concentrations of antibacterial agents (0.03-64 μg/mL). The plates were incubated according to the guidelines of the Clinical and Laboratory Standards Institute (Clinical and Laboratory Standards Institute. Methods for Dilution Antimicrobial Susceptibility Tests for Bacteria That Grow Aerobically; Approved Standard-Eleventh Edition, CLSI document […], 11 Jan. 2018). The MIC90 (μg/ml) is the MIC value at which greater than or equal to 90% of the isolates (strains) within a test population are inhibited.

[2] = system: Klebsiella pneumonia (100 isolates); assay: as above; format: cell-based
Method: as §1

E. coli UT189 = assay: Further murine urinary tract infection study, intravenous infusion; format: in vivo; settings: 96 h
Method: Compound (I) was evaluated in further proof-of-concept studies in murine models for the treatment of a respiratory infection with Gram-negative bacteria of the order Enterobacterales, and a urinary tract infection with Gram-negative bacteria of the order Enterobacterales. Each dot, triangle or square indicator represents a single mouse. LOD refers to the limit of detection of the bacteria. […] Each of the proof-of-concept studies was carried out separately. By vehicle is meant pharmaceutically acceptable excipient or carrier. For the further proof-of-concept study for the treatment of a urinary tract infection with Enterobacterales, female C3H/HeN mice were infected with E. coli UT189. Twenty-four hours after infection (‘pre-treatment’ in FIGS. 6a-c), mice were either treated with a vehicle control (20% hydroxypropyl β cyclodextrin) containing no compound (I), or a vehicle (20% hydroxypropyl β cyclodextrin) containing compound (I), administered by intravenous infusion for 1 hour (QD) with a dose of 20 mg/kg of compound (I). For some mice who received vehicle containing compound (I), an additional 1-hour continuous intravenous infusion was administered 5 hours after the time at which the first administration begun (BID, 5 hrs apart). The once or twice daily administration was continued for three days. For QD, administration took place between 24 to 25 hours, 48 to 49 hours, and 72 to 73 hours after infection, and for BID, administration took place between 24 to 25 hours, 29 to 30 hours, 48 to 49 hours, 53 to 54 hours, 72 to 73 hours and 77 to 78 hours after infection.

[3] = system: 44 ligands (including receptors, transporters, ion channels, enzymes and kinases); assay: In vitro safety pharmacology binding assays (CEREP profile); settings: 10 μM, 44 ligands tested
Method: In vitro pharmacology binding assays were carried out for compound (I), comparative compound (II) and comparative compound (III) to evaluate the percentage of inhibition against 44 ligands (including receptors, transporters, ion channels, enzymes and kinases) at a concentration of 10 μM of compound (I), comparative compound (II) or comparative compound (III). Compound binding was calculated as a percentage of inhibition of the binding of a radioactively labelled ligand specific for each target. Results showing an inhibition higher than 50% are considered to represent discernible effects of compound (I), comparative compound (II) or comparative compound (III). […] The in vitro pharmacology binding assays for compound (I) and comparative compounds (II) and (III) was carried out separately over different days, and compared in FIGS. 1a, 1b, 1c, and 1d.

Permeability = format: in vitro ADME
[4] = system: Providencia spp. (10 isolates); assay: MIC by broth microdilution (EUCAST), 10 isolates; format: cell-based
Method: as §1, with “inhibited. Minimum Inhibitory Concentrations (MICs) versus Proteus spp. and Providencia spp. were determined for compound (I) and comparative compound (III) using the methodology outlined above for the 100 isolates of Escherichia coli and Klebsiella pneumonia.” for “inhibited.”

[5] = system: Proteus spp. (10 isolates); assay: MIC by broth microdilution (EUCAST), 10 isolates; format: cell-based
Method: as §1, with “inhibited. Minimum Inhibitory Concentrations (MICs) versus Proteus spp. and Providencia spp. were determined for compound (I) and comparative compound (III) using the methodology outlined above for the 100 isolates of Escherichia coli and Klebsiella pneumonia.” for “inhibited.”

[6] = 1 h IV infusion 20 mg/kg BID (5 hrs apart) for three days
[7] = 1 h IV infusion 20 mg/kg QD for three days

- MIC90 [1]: 1 µg/mL (≈ 2.55 µM)
- MIC Range [1]: 0.12 to 4.00 µg/mL
- MIC Range [2]: 0.25 to 8.00 µg/mL
- MIC90 ([2]; Klebsiella pneumoniae): 2 µg/mL (≈ 5.1 µM)
- permeability (Permeability): good permeability
- MIC Range [4]: 0.5 to 16 µg/mL
- MIC Range [5]: 8 to 32 µg/mL
Compound: Cc1cnccc1-c1[nH]c(N)nc1-c1ccc2c(c1)N(C(=O)C(C)(C)N)CCO2 [Compound (I), 2-amino-1-(6-(2-amino-5-(3-methylpyridin-4-yl)-1H-imidazol-4-yl)-2,3-dihydro-4H-benzo[b][1,4]oxazin-4-yl)-2-methylpropan-1-one]
- reduction of bacterial burden in the bladder compared to vehicle (E. coli UT189; [6]): 5.84 log
- reduction of bacterial burden in the kidney compared to vehicle (E. coli UT189; [6]): 4.3 log
- reduction of bacterial burden in the urine compared to vehicle (E. coli UT189; [6]): 5.87 log
- reduction of bacterial burden in the bladder compared to vehicle (E. coli UT189; [7]): 5.01 log
- reduction of bacterial burden in the kidney compared to vehicle (E. coli UT189; [7]): 3.17 log
- bacterial burden in the bladder at end of study (E. coli UT189; BID (5 hrs apart)): below the limit of detection (LOD)
- bacterial burden in the kidney at end of study (E. coli UT189; BID (5 hrs apart)): below the limit of detection (LOD)
- bacterial burden in the urine at end of study (E. coli UT189; BID (5 hrs apart)): below the limit of detection (LOD)
- bacterial burden in the bladder at end of study (E. coli UT189; QD): below the limit of detection (LOD)
- bacterial burden in the urine at end of study (E. coli UT189; QD): below the limit of detection (LOD)
- reduction of bacterial burden in the urine compared to vehicle (E. coli UT189; female C3H/HeN mice, 1 h IV infusion 20 mg/kg QD for three days): 4.86 log
- ligands with inhibition higher than 50% [3]: only a single ligand
